Common to all, as to experiment: relative viability (nuclei count vs DMSO), 5 days (fraction); higher = more cells survive
Compound in assay [1]: Cn1c(=O)n(-c2ccc(C(C)(C)C#N)cc2)c2c3cc(-c4cnc5ccccc5c4)ccc3ncc21 [Dactolisib] + CC(=O)c1c(C)c2cnc(Nc3ccc(N4CCNCC4)cn3)nc2n(C2CCCC2)c1=O [Palbociclib] (partner 0.5 µM)
Summed up: (§1)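 Relative viability divides the nuclei count in treated wells by that in vehicle wells. Lung cancer cell lines were seeded in 1536-well plates, dosed by pin tool the next day, and fixed and stained after 5 days in one step with final 0.05% Triton X-100, 1% formaldehyde and 1 ug/ml Hoechst. Dosing was a single drug or a fixed anchor-drug dose plus five library-drug doses (not always all listed) in √10 steps, and values are medians of duplicate plates imaged at 4×.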

Compound in assay [2]: C1CCC(CC1)N(CCNCCC2=C3C(=C(C=C2)O)NC(=O)CO3)C(=O)CCNCCC4=CC(=C(C=C4)Cl)Cl [AZ505] + CS(=O)(=O)CCNCc1ccc(-c2ccc3ncnc(Nc4ccc(OCc5cccc(F)c5)c(Cl)c4)c3c2)o1 [Lapatinib] (partner 2 µM)
Summed up:
as §1

Compound in assay [3]: Cn1c(=O)n(-c2ccc(C(C)(C)C#N)cc2)c2c3cc(-c4cnc5ccccc5c4)ccc3ncc21 [Dactolisib] + CCNC(=O)c1noc(-c2cc(C(C)C)c(O)cc2O)c1-c1ccc(CN2CCOCC2)cc1 [Luminespib] (partner 0.01 µM)
An outline of the steps: as §1

Compound in assay [4]: Cn1c(=O)n(-c2ccc(C(C)(C)C#N)cc2)c2c3cc(-c4cnc5ccccc5c4)ccc3ncc21 [Dactolisib] + N=C(N)NC(=N)NCCc1ccccc1 [Phenformin] (partner 250 µM)
An outline of the steps: as §1

NCI-H1648: the relative viability was determined as 0.284 in assay [1] (first compound 0.002 µM); 0.283 in assay [1] (first compound 0.006325 µM); 0.231 in assay [1] (first compound 0.02 µM); 0.206 in assay [1] (first compound 0.06325 µM); 0.215 in assay [1] (first compound 0.2 µM).

For the cell line SK-MES-1, the relative viability came out at 0.406 in assay [2] (first compound 0.08 µM); 0.434 in assay [2] (first compound 0.253 µM); 0.499 in assay [2] (first compound 0.8 µM); 0.473 in assay [2] (first compound 2.53 µM); 0.445 in assay [2] (first compound 8 µM); 0.297 in assay [1] (first compound 0.002 µM). Besides, the relative viability in assay [1] (first compound 0.006325 µM) turned out to be 0.298; in assay [1] (first compound 0.02 µM), 0.269; in assay [1] (first compound 0.06325 µM) it was 0.247; in assay [1] (first compound 0.2 µM), 0.214; in assay [3] (first compound 0.002 µM), 0.828; in assay [3] (first compound 0.006325 µM), 0.744. Further, the relative viability was found to be 0.349 in assay [3] (first compound 0.02 µM); 0.286 in assay [3] (first compound 0.06325 µM); 0.171 in assay [3] (first compound 0.2 µM); 0.667 in assay [4] (first compound 0.002 µM); 0.662 in assay [4] (first compound 0.006325 µM); 0.627 in assay [4] (first compound 0.02 µM). The figures for the relative viability in assay [4] (first compound 0.06325 µM) and in assay [4] (first compound 0.2 µM) were 0.388 and 0.212, respectively.

Take SK-LU-1: the relative viability in assay [2] (first compound 0.08 µM) was 0.477; in assay [2] (first compound 0.253 µM) it was 0.651; in assay [2] (first compound 0.8 µM), 0.578; in assay [2] (first compound 2.53 µM), 0.537; in assay [2] (first compound 8 µM), 0.712; in assay [1] (first compound 0.002 µM), 0.335. Further, the relative viability in assay [1] (first compound 0.006325 µM) was 0.393; in assay [1] (first compound 0.02 µM), 0.337; in assay [1] (first compound 0.06325 µM), 0.268; in assay [1] (first compound 0.2 µM) it was 0.281; in assay [3] (first compound 0.002 µM), 0.211; in assay [3] (first compound 0.006325 µM) it was 0.18. Besides, the relative viability came out at 0.214 in assay [3] (first compound 0.02 µM); 0.159 in assay [3] (first compound 0.06325 µM); 0.132 in assay [3] (first compound 0.2 µM); 0.273 in assay [4] (first compound 0.002 µM); 0.491 in assay [4] (first compound 0.006325 µM); 0.414 in assay [4] (first compound 0.02 µM). Also, the relative viability in assay [4] (first compound 0.06325 µM) came to 0.259; in assay [4] (first compound 0.2 µM), 0.185.

Consider HCC-366, for which the relative viability in assay [2] (first compound 0.08 µM) was 1.01; in assay [2] (first compound 0.253 µM), 1.01; in assay [2] (first compound 0.8 µM), 0.903; in assay [2] (first compound 2.53 µM), 0.986; in assay [2] (first compound 8 µM) it was 1.06; in assay [1] (first compound 0.002 µM) it was 0.402. Moreover, the relative viability in assay [1] (first compound 0.006325 µM) is 0.349; in assay [1] (first compound 0.02 µM), 0.232; in assay [1] (first compound 0.06325 µM), 0.102; in assay [1] (first compound 0.2 µM) it was 0.0378; in assay [4] (first compound 0.002 µM), 0.602; in assay [4] (first compound 0.006325 µM) it was 0.625. The values for the relative viability in assay [4] (first compound 0.02 µM), in assay [4] (first compound 0.06325 µM) and in assay [4] (first compound 0.2 µM) were 0.587, 0.397 and 0.151, respectively.

On to 201T, for which the relative viability in assay [2] (first compound 0.08 µM) is 1; in assay [2] (first compound 0.253 µM), 1.04; in assay [2] (first compound 0.8 µM), 0.957; in assay [2] (first compound 2.53 µM), 1.04; in assay [2] (first compound 8 µM), 1.01; in assay [1] (first compound 0.002 µM), 0.363. For the same cell line, the relative viability in assay [1] (first compound 0.006325 µM) worked out at 0.356; in assay [1] (first compound 0.02 µM) it was 0.334; in assay [1] (first compound 0.06325 µM), 0.279; in assay [1] (first compound 0.2 µM), 0.267; in assay [3] (first compound 0.002 µM) it was 1.15; in assay [3] (first compound 0.006325 µM), 0.992. Moreover, the relative viability is 0.952 in assay [3] (first compound 0.02 µM); 0.89 in assay [3] (first compound 0.06325 µM); 0.469 in assay [3] (first compound 0.2 µM); 0.476 in assay [4] (first compound 0.002 µM); 0.483 in assay [4] (first compound 0.006325 µM); 0.446 in assay [4] (first compound 0.02 µM). In addition, the figures for the relative viability in assay [4] (first compound 0.06325 µM) and in assay [4] (first compound 0.2 µM) were 0.414 and 0.428, respectively.

Regarding HCC-827, the relative viability in assay [2] (first compound 0.08 µM) is 0.218; in assay [2] (first compound 0.253 µM), 0.191; in assay [2] (first compound 0.8 µM) it was 0.171; in assay [2] (first compound 2.53 µM), 0.199; in assay [2] (first compound 8 µM), 0.191; in assay [1] (first compound 0.002 µM), 0.473. Also, the relative viability in assay [1] (first compound 0.006325 µM) is 0.518; in assay [1] (first compound 0.02 µM) it was 0.47; in assay [1] (first compound 0.06325 µM) it was 0.36; in assay [1] (first compound 0.2 µM) it was 0.171; in assay [3] (first compound 0.002 µM), 0.532; in assay [3] (first compound 0.006325 µM), 0.626. In addition, the relative viability came to 0.538 in assay [3] (first compound 0.02 µM); 0.401 in assay [3] (first compound 0.06325 µM); 0.144 in assay [3] (first compound 0.2 µM); 0.394 in assay [4] (first compound 0.002 µM); 0.392 in assay [4] (first compound 0.006325 µM); 0.396 in assay [4] (first compound 0.02 µM). Also, the relative viability in assay [4] (first compound 0.06325 µM) was found to be 0.382; in assay [4] (first compound 0.2 µM), 0.393.

Consider NCI-H647, for which the relative viability in assay [2] (first compound 0.08 µM) worked out at 1.03; in assay [2] (first compound 0.253 µM) it was 1.11; in assay [2] (first compound 0.8 µM) it was 1.01; in assay [2] (first compound 2.53 µM) it was 1.03; in assay [2] (first compound 8 µM) it was 1.17; in assay [1] (first compound 0.002 µM), 0.398. The relative viability was 0.294 in assay [1] (first compound 0.006325 µM); 0.196 in assay [1] (first compound 0.02 µM); 0.0842 in assay [1] (first compound 0.06325 µM); 0.0654 in assay [1] (first compound 0.2 µM); 0.153 in assay [3] (first compound 0.002 µM); 0.149 in assay [3] (first compound 0.006325 µM). Also, the relative viability turned out to be 0.109 in assay [3] (first compound 0.02 µM); 0.0951 in assay [3] (first compound 0.06325 µM); 0.0891 in assay [3] (first compound 0.2 µM); 0.536 in assay [4] (first compound 0.002 µM); 0.449 in assay [4] (first compound 0.006325 µM); 0.429 in assay [4] (first compound 0.02 µM). For the same cell line, the results for the relative viability in assay [4] (first compound 0.06325 µM) and in assay [4] (first compound 0.2 µM) were 0.156 and 0.105, respectively.

For the cell line NCI-H2023, the relative viability in assay [2] (first compound 0.08 µM) was found to be 0.674; in assay [2] (first compound 0.253 µM), 0.822; in assay [2] (first compound 0.8 µM), 0.845; in assay [2] (first compound 2.53 µM), 0.917; in assay [2] (first compound 8 µM) it was 0.815; in assay [1] (first compound 0.002 µM), 0.395. Besides, the relative viability is 0.297 in assay [1] (first compound 0.006325 µM); 0.274 in assay [1] (first compound 0.02 µM); 0.106 in assay [1] (first compound 0.06325 µM); 0.0901 in assay [1] (first compound 0.2 µM); 0.643 in assay [3] (first compound 0.002 µM); 0.562 in assay [3] (first compound 0.006325 µM). In addition, the relative viability came out at 0.217 in assay [3] (first compound 0.02 µM); 0.0703 in assay [3] (first compound 0.06325 µM); 0.0888 in assay [3] (first compound 0.2 µM); 0.43 in assay [4] (first compound 0.002 µM); 0.361 in assay [4] (first compound 0.006325 µM); 0.309 in assay [4] (first compound 0.02 µM). The relative viability amounted to 0.14 in assay [4] (first compound 0.06325 µM) and 0.122 in assay [4] (first compound 0.2 µM).

The values above are taken from the supplement of paper PMC10307832.
